Data as given in article PMC4978154, “Phase I metabolites of mephedrone display biological activity as substrates at monoamine transporters” (British Journal of Pharmacology, 2016).
Like-named read-outs stand apart in the source and are kept apart here.

Experiments:
hNET = target: T1, hNET (Homo sapiens, UniProt P23975); experiment: Transporter uptake inhibition in HEK293 cells expressing hNET; format: cell-based; details: [3H]-MPP+ uptake; for IC50: mean (95% confidence interval)
T1 construct: expressed in transfected cells
Experimental: (§1) The generation of HEK293 cells stably expressing the human isoforms of DAT (hDAT) and NET (hNET) was carried out as described previously (Scholze et al., 2002). For SERT, the human isoform (hSERT) was cloned in frame with yellow fluorescent protein (Schmid et al., 2001). The generation of a stable cell line was performed as described by Hilber and colleagues (Hilber et al., 2005). HEK293 cells were maintained in humidified atmosphere (5% CO2, 37°C) in DMEM, supplemented with 10% heat‐inactivated FBS and penicillin (100 u 100 mL^−1) and streptomycin (100 μg 100 mL^−1). Selection pressure was maintained by adding geneticin (50 μg·mL^−1) to the cell culture media.
Uptake experiments were conducted as described previously (Sitte et al., 2001) with minor modifications. In brief, HEK293 cells expressing hDAT, hNET or hSERT were seeded into poly‐D‐lysine (PDL) coated 96‐well plates at a density of 40 000 cells per well. The next day, DMEM was aspirated and replaced with Krebs HEPES buffer (KHB, 25 mM HEPES, 120 mM NaCl, 5 mM KCl, 1.2 mM CaCl2, and 1.2 mM MgSO4, 5 mM D‐glucose, pH adjusted to 7.3 with NaOH) (200 μL per well), and cells were pre‐incubated with various concentrations of mephedrone or its metabolites for 5 min (50 μL per well). Subsequently, 0.1 μM of [^3H]‐5‐HT or 0.02 μM of [^3H]‐MPP^+ were added, and uptake was terminated after 1 (hSERT) or 3 min (hDAT, hNET) by washing the cells with 200 μL of ice‐cold KHB. Cells were lysed with 1% SDS, and tritium uptake was determined by scintillation counting. Nonspecific uptake was determined in the presence of 10 μM paroxetine (hSERT) or 10 μM mazindol (hDAT and hNET).
Calculations were performed using Microsoft Excel® 2010 (Microsoft Corporation, Redmond, WA, USA) and […] PRISM 5.0. (GraphPad Software Inc., La Jolla, CA, USA). IC50 values for uptake inhibition and EC50 values for release were determined by nonlinear regression fits. Release data expressed as AUC were analysed by one‐way ANOVA followed by Bonferroni's multiple comparison test. Microdialysis and locomotor data were analysed by two‐way ANOVA (drug treatment × time) followed by Bonferroni's test. The effect of monensin treatment on basal efflux of tritiated substrate was analysed with the Mann–Whitney test. P values less than 0.05 (i.e. P < 0.05) were considered significant. The data and statistical analysis comply with the recommendations on experimental design and analysis in pharmacology (Curtis et al., 2015).

[1] = forensic traffic case, ref Pedersen et al., 2013, cited from earlier work; for blood concentration, first case: parent drug:metabolite 28:2; for blood concentration, second case: parent drug:metabolite 29:9
hSERT = target: T2, hSERT (Homo sapiens, UniProt P31645); experiment: Transporter release (superfusion) assay in HEK293 cells expressing hSERT; format: cell-based; details: test drug 10 μM, monensin 10 μM; post hoc Bonferroni
T2 construct: yellow fluorescent protein (YFP); expressed in transfected cells
Experimental: as §1
Superfusion experiments were performed as described previously (Scholze et al., 2002). […] Finally, the cells were lysed in 1% SDS to determine the total radioactivity. Radioactivity per fraction was assessed by a liquid scintillation counter and expressed as fractional release, that is, the percentage of released ^3H in relation to total ^3H present at the beginning of the fraction (Sitte et al., 2000). For analysis, release was expressed as AUC.
Calculations were performed using Microsoft Excel® 2010 (Microsoft Corporation, Redmond, WA, USA) and GRAPHPAD PRISM 5.0. […] IC50 values for uptake inhibition and EC50 values for release were determined by nonlinear regression fits. […]

[2] = IC50 on uptake mediated by hNET

T1 sequence (P23975 whole entry): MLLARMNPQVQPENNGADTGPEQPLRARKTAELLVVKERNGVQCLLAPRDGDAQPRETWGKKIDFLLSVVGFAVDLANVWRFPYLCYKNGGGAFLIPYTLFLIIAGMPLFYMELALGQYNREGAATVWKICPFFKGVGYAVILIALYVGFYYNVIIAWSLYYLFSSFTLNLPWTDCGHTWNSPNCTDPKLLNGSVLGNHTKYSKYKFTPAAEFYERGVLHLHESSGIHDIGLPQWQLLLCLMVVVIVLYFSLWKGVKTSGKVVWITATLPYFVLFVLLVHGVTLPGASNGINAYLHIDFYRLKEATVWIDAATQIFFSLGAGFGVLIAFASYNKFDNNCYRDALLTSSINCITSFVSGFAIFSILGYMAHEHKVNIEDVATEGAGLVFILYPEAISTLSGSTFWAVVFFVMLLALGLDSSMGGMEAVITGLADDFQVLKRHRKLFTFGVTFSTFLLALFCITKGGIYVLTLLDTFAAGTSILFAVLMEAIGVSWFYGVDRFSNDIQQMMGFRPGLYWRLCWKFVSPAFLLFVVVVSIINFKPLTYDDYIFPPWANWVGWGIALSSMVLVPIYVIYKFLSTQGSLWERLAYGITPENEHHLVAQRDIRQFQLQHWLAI
T2 sequence (P31645 whole entry, the tested form may be a part): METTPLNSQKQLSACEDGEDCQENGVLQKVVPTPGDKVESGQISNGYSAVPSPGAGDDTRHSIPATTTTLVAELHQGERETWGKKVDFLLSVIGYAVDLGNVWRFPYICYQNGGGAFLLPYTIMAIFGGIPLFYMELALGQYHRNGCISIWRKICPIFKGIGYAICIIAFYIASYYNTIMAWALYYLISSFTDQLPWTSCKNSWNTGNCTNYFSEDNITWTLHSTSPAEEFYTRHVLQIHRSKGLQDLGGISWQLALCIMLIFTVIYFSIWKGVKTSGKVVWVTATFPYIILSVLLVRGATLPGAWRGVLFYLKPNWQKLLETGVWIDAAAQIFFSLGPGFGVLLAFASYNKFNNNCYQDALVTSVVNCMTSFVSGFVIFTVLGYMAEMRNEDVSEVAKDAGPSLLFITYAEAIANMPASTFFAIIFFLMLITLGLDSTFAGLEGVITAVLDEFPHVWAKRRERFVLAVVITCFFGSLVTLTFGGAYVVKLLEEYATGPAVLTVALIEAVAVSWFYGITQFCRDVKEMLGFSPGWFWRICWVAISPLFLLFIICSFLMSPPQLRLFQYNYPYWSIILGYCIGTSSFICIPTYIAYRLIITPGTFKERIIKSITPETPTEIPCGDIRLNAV

Compound	efficacy of uptake inhibition at hNET (hNET)	IC50 (hNET; read-out: IC50 on uptake mediated by hNET) [µM]	blood concentration, first case [1] [µg/kg]	blood concentration, second case [1] [µg/kg]	IC50 (hNET; [2]) [µM]	enhancement by monensin of drug-evoked [3H]-5-HT release at hSERT (AUC) (hSERT)
CNC(C)C(=O)c1ccc(CO)cc1.Cl (centres unmarked) [4‐OH‐mephedrone, 1‐(4‐(hydroxymethyl)phenyl)‐2‐(methylamino)propan‐1‐one hydrochloride]	fully efficacious inhibitors of uptake	4.85	2	9		
CNC(C)C(=O)c1ccc(C)cc1.Cl (centres unmarked) [Mephedrone, 2‐Methylamino‐1‐(p‐tolyl)propan‐1‐one hydrochloride]	fully efficacious inhibitors of uptake		28	29	2.77	significant
Cc1ccc(C(=O)C(C)N)cc1.Cl (centres unmarked) [Nor‐mephedrone, 2‐amino‐1‐(p‐tolyl)propan‐1‐one hydrochloride]	fully efficacious inhibitors of uptake				5.46	
